Reference: US20210284691A1, “CBX8 CHROMDOMAIN INHIBITORS AND THE USES THEREOF” (Purdue Research Foundation, priority 2019, published 2021)
Blank lines part the entries; values can stand above or below the molecule they belong to. Square brackets hold non-standard residues; d marks the D form. Primed or numbered codes have the meaning given here. Ends that are not written are not given here. Peptide text beside a SMILES is read from it. * marks the point of attachment. Isoxazole3carbonyl(5-Me) = Cc1cc(C(=O)*)no1; Tyr(3-Cl) = N[C@@H](Cc1ccc(O)c(Cl)c1)C(=O)O; Lys(Et2) = CCN(CC)CCCC[C@H](N)C(=O)O; PEG4′ = not defined here; NH(propargyl) = C#CCN*

Assays:
CBX8 ChD = target: T1, CBX8 ChD (Homo sapiens, UniProt Q9HC52); assay: Direct fluorescence polarization (FP) binding assay; conditions: from Kd values
T1 construct: CBX chromodomain constructs; host or cells: E. coli BL21 CodonPlus RIL
T1 sequence (Q9HC52 11-69 limits assumed): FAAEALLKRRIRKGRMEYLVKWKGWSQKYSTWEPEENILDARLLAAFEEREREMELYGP
Experimental: Bacterial growth was completed at 37° C. in LB media to OD600=2.0, followed by reducing the temperature to 16° C. over 30-60 min and induced with 1 mM IPTG for 16 h. Cells were collected by centrifugation at 6000 rpm for 20 min and resuspended in ChD binding buffer (20 mM Tris, pH 8, 150 mM NaCl, 0.01% Tween-20, 20 mM imidazole) with 1.0 mM PMSF. Bacteria pellets were stored at −80° C. until needed. Pellets were thawed on ice for 10 min in ChD binding buffer, and shaked at 4° C. supplemented with 100 μg/mL lysozyme, 1 mg/mL CHAPS and 1 mM PMSF, for 30 min. Cells were subsequently lysed by sonication (15 W, 30 s on, followed by 30 s off, twice, followed by 20 W for 1 min). The solubilized fraction was collected by centrifugation at 15000 rpm for 40 min at 4° C. Meanwhile, Ni-NTA Agarose resin (QIAGEN, Venlo, Netherlands) was washed with H2O and equilibrated with ChD binding buffer. The soluble fraction was incubated with the prewashed Ni-NTA agarose resin at 4° C. for 2 h. The resin was then washed 3× with ChD purification buffer (20 mM Tris, pH 8, 150 mM NaCl, 0.01% Tween-20, 1 mM PMSF). Proteins were eluted by the addition of 0.5 M imidazole to ChD purification buffer. The elution was diluted with 30% glycerol, flash frozen, and stored at −80° C. until needed. Protein purity was assessed by SDS-PAGE and concentration was determined by the Pierce 660 kit (Thermo Scientific).
Direct fluorescence polarization (FP) binding assay of PSL hits against PcG CBX ChDs. FP assays were conducted as above with slight modifications. Alkyne peptides described above were conjugated with a fluorescein group(5-/6-FAM) through copper catalyzed click reaction as previously described. The FAM-labeled peptide was kept constant at 100 nM. The CBX ChD proteins were titrated by 2-fold series dilutions in the assays. The highest protein concentrations, at which FAM-peptide was completely bound, used for each CBX in the direct binding assays depends on the binding affinity of the peptides. Assays were performed for each peptide in four replicates.

[1] = target: T2, CBX8 binding to chromatin (Homo sapiens, UniProt Q9HC52); assay: ChIP-qPCR in Hs68 fibroblast cells; assay type: cell-based; conditions: 120 μM
T2 construct: endogenous in cells; host or cells: Hs68 fibroblasts (A16); HEK293T (A19); K562 (A23)
T2 sequence (Q9HC52 1-389): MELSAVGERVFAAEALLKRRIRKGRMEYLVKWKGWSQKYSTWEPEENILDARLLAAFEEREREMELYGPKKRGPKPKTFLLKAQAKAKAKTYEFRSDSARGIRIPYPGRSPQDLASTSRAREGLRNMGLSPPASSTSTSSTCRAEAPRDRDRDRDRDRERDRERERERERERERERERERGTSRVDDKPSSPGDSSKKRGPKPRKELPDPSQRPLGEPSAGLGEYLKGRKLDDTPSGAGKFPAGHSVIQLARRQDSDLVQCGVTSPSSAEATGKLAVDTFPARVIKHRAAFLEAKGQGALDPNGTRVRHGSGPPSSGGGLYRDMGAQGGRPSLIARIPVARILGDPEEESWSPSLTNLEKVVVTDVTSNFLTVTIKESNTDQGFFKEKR
Experimental: ChIP: Hs68 cells were seeded at 4×10^6 in a 10 cm cell culture plates 16 hours prior to treatment. […] ChIP was performed as described in Connelly et al., 2018. Birefly, cells were washed with PBS and fixed on the plate with CiA Fix buffer (50 mM HEPES, pH 8.0, 1 mM EDTA, 0.5 mM ETGA, 100 mM NaCl) and 1% formaldehyde for 10 min at room temperature. Crosslinking was quenched with 0.125 M glycine for 5 min at 4° C. Cells were washed once with PBS and lifted off the plate then resuspended in CiA NP Rinse buffer 1 (50 mM HEPES pH 8.0, 140 mM NaCl, 1 mM EDTA, 10% glycerol, 0.5% NP-40, 0.25% Triton X) for 10 min. Cells were pelleted at 1200×g for 5 min at 4° C. The supernatant was removed, and the cells were resuspended in CiA NP rinse buffer 2 (10 mM Tris pH 8.0, 1 mM EDTA, 0.5 mM EGTA, 200 mM NaCl). Cells were collected by centrifugation, 1200×g for 5 min. Supernatant was removed and the cells were washed twice with shearing buffer (0.1% SDS, 1 mM EDTA, 10 mM Tris HCl, pH 8.0). Cells were resuspended in shearing buffer and sonicated for 7 min with the probe (Branson). Lysate was centrifuged at 21,000×g for 15 min to remove debris. Supernatant was collected and pre-cleared overnight with Protein A/G magnetic beads (Pierce). […]
qPCR: qPCR was performed on the isolated ChIP DNA using SYBR master mix (Thermo) and run on the BioRad CFX thermo cycler. […] Enrichment was determined by percent input. […]

CBX8 regulated gene = assay: Gene expression of a CBX8 regulated gene in HEK293T cells; assay type: cell-based, Human; conditions: high compound concentrations
THP1 cells = conditions: 50 μM
LNCaP_NED cells = assay: LNCaP_NED cell proliferation, viability and morphology; assay type: cell-based; conditions: enzalutamide treatment
Source text: FIG. 12A). Neuroendocrine differentiation (NED) of prostate cancer induced by androgen deprivation. Representative pictures of LNCaP cells treated with normal media or charcoal-stripped serum (CSS) media for 6 days to induce neuroendocrine differentiation (LNCaP_NED). FIG. 12B). Transcriptional fold changes of KLK3/TMPRSS2/ENO2/CHGA were quantified normalized to control gene YWHAZ upon CSS media treatment for 6 or 9 days. FIG. 12C). Western blotting of CBX paralogs in LNCaP and LNCaP_NED cells generated from 14-day CSS treatment. FIG. 12D). Cell proliferation of LNCaP_NED following 5 days incubation with 2 or 10 μM SW2_152F. DMSO was used as negative control. FIG. 12E). LNCaP_NED cells were treated with 10 μM SW2_152F for 24 h-96 h. Cell morphology pictures were captured starting from 24 h. Average cell size were plotted at 24 h or 48 h for both DMSO group and compound treated group. FIG. 12F). LNCaP_NED cells were treated with 10 μM or 50 μM SW2_152F for 48 hours. Transcriptional fold change of genes (KLK3/TMPRSS2/AR/CBX2) were normalized to YWHAZ in LNCaP_NED cells with SW2_152F treatment or DMSO. FIG. 12G). LNCaP cells were treated with DMSO. LNCaP_NED cells were treated with DMSO, 10 μM GSK343 or 10 μM SW2_152F for 48 hours. Whole cell lysates were extracted for western blotting. FIG. 12H). LNCaP_NED cells were treated with DMSO or 10 μM SW2_152F for 4 hours before harvest. Binding of H3K27me3 and CBX2 at specific genomic sites (KLK3/TMPRSS2, e: enhancer, p: promoter) were evaluated using chromatin immunoprecipitation-qPCR. For all experiments in the figure, error bars represent SEM n=3 biological replicates, p-values were calculated using two-tailed Student's t-test, *=p<0.05, **=p<0.01, ***=p<0.001, ****=p<0.0001.
Cellular Activity of CBX2 Inhibitor in Neuroendocrine Differentiation of Prostate Cancer—Generation of a Prostate Cancer Neuroendocrine Differentiation (NED) System. To generate an in vitro model for NED, we cultured the androgen-sensitive prostate cancer cell line LNCaP in charcoal-stripped serum (CSS), which lacks androgens as well as other steroids. Upon treatment with CSS media, LNCaP cells adopted morphological characteristics of neuroendocrine-like cells (LNCaP_NED), which include dominant nucleus, limited cytoplasm, dendrites (FIG. 12A) and a decreased proliferation rate. To monitor transcriptional changes during androgen deprivation, we quantified the changes in expression of two NED markers (ENO2 and CHGA) and two AR target genes (KLK3 and TMPRSS2) by RT-qPCR during 15 days of androgen deprivation. […] To verify that LNCaP_NED cells become resistant to AR antagonists, we tested the effects of the AR antagonist enzalutamide (ENZA) on cell proliferation.

LNCaP cells = assay: LNCaP cell proliferation; assay type: cell-based; conditions: ENZA treatment
endogenous CBX proteins = assay: Peptide pull-down / chemoprecipitation from HEK293T lysates; assay type: binding, Human
Experimental: 2×10^7 HEK293T cells were seeded in a 15 cm cell culture dish overnight. Next day, media was removed and cells were washed with PBS. Cells were lysed with 5 ml Buffer A (25 mM HEPES, 5 mM KCl, 25 mM MgCl2, 0.05 mM EDTA, 10% glycerol, 0.1% NP-40, plus protease inhibitors) on ice for 15 minutes. The nuclei were pelleted and re-suspended in IP buffer (25 mM Tris, 300 mM NaCl, 1 mM EDTA, 1% NP-40, plus protease inhibitors) for 15 minutes. The sample were spun down at 15,000 rpm at 4° C. for 5 min and lysates were transferred to separate tubes. Protein concentrations were determined by Pierce 660 nm kit (Thermo Scientific). Streptavidin M-270 Dynabeads (Solulink, San Diego, Calif.) was washed three times with Pulldown Binding Buffer (50 mM Tris, 150 mM NaCl, 0.5 mM DTT). 10× of biotinylated peptides SW2_110A-B, as well as biotinylated H3K27me3 (21-44) and biotinylated H3 (21-44), were incubated with […] pre-equilibriumed beads at 4° C. for an hour. After biotin-peptide being immobilized on resin, extra unbound peptides were removed by 3× washing, and 200 μg of nuclear lysate supernatant was added to each washed and immobilized biotinylated peptide (biotin-H3, biotin-H3K27me3, SW2_110A-B). The mixture was rotated at 4° C. for 2 hours. Then, the depleted lysate was removed and the beads were washed with Pulldown Binding Buffer 3× at 4° C. […] ImageJ was employed to quantitate the protein bands.

selectivity for CBX8 ChD over CBX7 ChD (CBX8 ChD): 20 fold
CBX8 binding at a known target, ChIP-qPCR [1]: completely unaffected
Molecule: C#CCNC(=O)[C@H](CO)NC(=O)[C@H](CCCCN(CC)CC)NC(=O)[C@@H](NC(=O)[C@@H](NC(=O)[C@H](Cc1ccc(O)c(Cl)c1)NC(=O)c1cc(C)on1)C(C)C)[C@@H](C)CC [KED97L] ({Isoxazole3carbonyl(5-Me)}-[Tyr(3-Cl)]VI[Lys(Et2)]S-{NH(propargyl)}; C-terminus assumed)
gene expression changes of a CBX8 regulated gene (CBX8 regulated gene): only slightly affected
THP1 cell viability (THP1 cells): only slightly affected

Molecule: CNC(=O)c1ccc(N2C(=S)N(c3ccc(C#N)c(C(F)(F)F)c3)C(=O)C2(C)C)cc1F [enzalutamide, reference compound]
LNCaP_NED proliferation with AR antagonist (LNCaP_NED cells): no further decrease in proliferation
LNCaP proliferation with AR antagonist (LNCaP cells): highly decreased proliferation

Molecule: SW2_152F-B: biotinylated SW2_152F (SEQ ID NO: 29) (PIKS-{PEG4′-biotin}; also: Pro1 alpha-amino modified, Lys3 side chain amino modified)
enrichment of endogenous CBX proteins by biotinylated ligand, immunoblot (endogenous CBX proteins): robustly enriched CBX2 and CBX8 with limited enrichment of other paralogs
